Measurements as given in ChEMBL document CHEMBL1201862, “PubChem BioAssay data set” (2004).
The source made the active and inactive calls.

What was measured:
[1] = target: Lysine-specific demethylase 4C (Homo sapiens, UniProt Q9H3R0); assay: GASC-1 (JMJD2C) histone demethylase inhibitors, dose response, biochemical, DELFIA europium, cherry-picked samples (AID 488835); format: functional
[2] = target: T1, Zinc finger protein mex-5 (Caenorhabditis elegans, UniProt Q9XUB2); assay: MEX-5/TCR-2 RNA interaction inhibitors, dose response, biochemical, C. elegans, fluorescence polarization (AID 1960)
T1 sequence (Q9XUB2 whole entry): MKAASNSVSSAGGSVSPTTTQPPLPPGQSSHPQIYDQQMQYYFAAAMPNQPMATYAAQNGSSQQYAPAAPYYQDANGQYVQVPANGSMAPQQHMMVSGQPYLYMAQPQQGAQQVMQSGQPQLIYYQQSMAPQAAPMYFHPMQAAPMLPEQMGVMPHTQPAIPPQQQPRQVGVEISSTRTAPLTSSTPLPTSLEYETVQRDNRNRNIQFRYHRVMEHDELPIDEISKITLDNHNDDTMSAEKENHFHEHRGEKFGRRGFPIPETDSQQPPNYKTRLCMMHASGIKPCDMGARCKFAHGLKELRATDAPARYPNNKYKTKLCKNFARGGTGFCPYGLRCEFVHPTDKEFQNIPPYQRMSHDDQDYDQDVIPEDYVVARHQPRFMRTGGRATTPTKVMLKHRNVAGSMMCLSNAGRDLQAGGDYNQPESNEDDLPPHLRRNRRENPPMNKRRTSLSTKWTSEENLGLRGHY

[3] = target: T2, RNA-binding protein pos-1 (Caenorhabditis elegans, UniProt G5EF15); assay: inhibitors of POS-1/mex-3 RNA binding, dose response, biochemical, fluorescence polarization (AID 1964);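 further: purified POS-1 fused to maltose binding protein made in E. coli; potency of compounds blocking POS-1 binding to fluorescent RNA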
T2 sequence (G5EF15 whole entry): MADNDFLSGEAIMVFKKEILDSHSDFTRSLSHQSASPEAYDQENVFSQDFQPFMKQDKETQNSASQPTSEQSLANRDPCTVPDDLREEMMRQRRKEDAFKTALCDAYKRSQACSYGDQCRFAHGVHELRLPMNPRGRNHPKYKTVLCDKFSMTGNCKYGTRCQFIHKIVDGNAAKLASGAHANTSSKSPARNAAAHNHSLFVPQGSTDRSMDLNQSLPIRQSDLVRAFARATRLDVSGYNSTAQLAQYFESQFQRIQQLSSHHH

INS1 = assay: beta cell apoptosis inhibitors, cytokine rescue, dose response, luminescence, retest (AID 449756); format: functional, cell-based; details: Rattus norvegicus;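 further: cell death triggered by IL-1 beta plus TNF-alpha plus IFN-gamma mixture; protective hits raise ATP signal compared with cytokine alone wells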
[4] = target: T3, Serine/threonine-protein phosphatase (Candida dubliniensis (strain CD36 / CBS 7987 / NCPF 3949 / NRRLY-17841) (Yeast), UniProt B9W6M3); assay: Fluorescence Cell-Based Secondary Assay to Identify Inhibitors of Calcineurin. [Related pubchem assays (depositor defined):AID1979, AID2007]; format: functional
T3 sequence (B9W6M3 whole entry): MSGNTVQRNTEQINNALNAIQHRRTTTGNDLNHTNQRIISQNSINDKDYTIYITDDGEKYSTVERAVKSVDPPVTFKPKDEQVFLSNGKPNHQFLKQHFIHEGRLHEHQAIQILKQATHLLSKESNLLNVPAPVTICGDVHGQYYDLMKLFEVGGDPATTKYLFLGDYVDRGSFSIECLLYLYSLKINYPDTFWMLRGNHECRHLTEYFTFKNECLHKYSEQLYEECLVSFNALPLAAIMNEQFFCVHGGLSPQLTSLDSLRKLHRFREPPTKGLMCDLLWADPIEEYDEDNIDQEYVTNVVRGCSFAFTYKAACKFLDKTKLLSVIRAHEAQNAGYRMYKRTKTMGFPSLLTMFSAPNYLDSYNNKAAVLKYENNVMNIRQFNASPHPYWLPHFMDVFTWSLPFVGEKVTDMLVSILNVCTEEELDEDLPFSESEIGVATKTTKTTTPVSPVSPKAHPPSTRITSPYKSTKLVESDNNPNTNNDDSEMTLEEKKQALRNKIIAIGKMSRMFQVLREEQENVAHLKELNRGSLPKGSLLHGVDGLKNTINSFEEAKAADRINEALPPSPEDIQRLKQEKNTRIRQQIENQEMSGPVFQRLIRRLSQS

[5] = Luminescence Cell-Based Dose Response HTS to Identify Inhibitors of 5'UTR Stem-Loop Driven Prion Protein mRNA Translation in H4 Neuroglioblastoma Cells. [Related pubchem assays: 1827 (Project Summary), 1813 (Primary HTS)]; format: functional
[6] = microbe, parasite or virus in culture; format: functional; details: Mycobacterium tuberculosis
[7] = inhibitors of SNCA 5'UTR-driven reporter translation, confirmation, H4 neuroglioma cells, luminescence (AID 1988); format: functional, cell-based
[8] = tested on: Streptococcus sp. 'group A'; assay: growth inhibition of control SK(-) GAS strain, dose response, counter-screen for streptokinase expression inhibitor project, luminescence, kanamycin, BacTiterGlo, confirmation (AID 1900); format: functional, organism-based
Streptococcus = assay: Group A Streptococcus viability loss, dose response, counter-screen for streptokinase expression inhibitor project, luminescence, BacTiterGlo (AID 1915); format: functional, organism-based;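 further: potency for reduction of bacterial viability or growth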
[9] = target: ATP-dependent molecular chaperone HSP82 (Candida albicans (strain WO-1) (Yeast), UniProt C4YTQ8); assay: loss of DOC-induced GRE-beta-galactosidase reporter signal, dose response, Hsp90 inhibitor project, S. cerevisiae, luminescence (AID 2400); format: functional, cell-based;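 further: beta-galactosidase luminescence from glucocorticoid response element reporter as proxy for Hsp90 function; inhibitor potency where signal loss means Hsp90 inhibition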
[10] = C. albicans growth with fluconazole, confirmation, fluorescence, retest (AID 2467); format: functional, cell-based
[11] = target: T3, Serine/threonine-protein phosphatase; assay: calcineurin pathway inhibitors in yeast reporter, dose response, S. cerevisiae, CDRE-lacZ, luminescence, secondary (AID 2388); format: functional, cell-based;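 further: yeast reporter cells carrying a calcineurin-responsive lacZ construct stimulated with calcium chloride; luminescent beta-galactosidase reporter signal in whole cells rather than isolated phosphatase activity; potency for inhibition where a drop in reporter signal means calcineurin blockade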
[12] = inhibitors of firefly luciferase expression or activity, dose response, H4 neuroglioma cells, luminescence (AID 1990); format: functional, cell-based
[13] = NIH-3T3 fibroblast cytotoxicity, dose response, cytotoxicity control, cell-based, fluorescence, Alamar Blue, secondary assay (AID 2327); format: functional;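 further: NIH-3T3 mouse fibroblasts cultured with fluconazole at 8 µg/mL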
Cytochrome P450 2C19 = Cytochrome P450 2C19 (Homo sapiens, UniProt P33261); assay: Cytochrome panel assay with activity outcomes. Panel member name: p450-cyp2c19 Compounds with AC50 equal or less than 10 uM are considered active; format: functional; details: read-out: AC50
Cytochrome P450 3A4 = Cytochrome P450 3A4 (Homo sapiens, UniProt P08684);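 further: CYP3A4 tested as one member of a cytochrome P450 panel screen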
Chain of Cytochrome P450 3A4 (P08684 whole entry): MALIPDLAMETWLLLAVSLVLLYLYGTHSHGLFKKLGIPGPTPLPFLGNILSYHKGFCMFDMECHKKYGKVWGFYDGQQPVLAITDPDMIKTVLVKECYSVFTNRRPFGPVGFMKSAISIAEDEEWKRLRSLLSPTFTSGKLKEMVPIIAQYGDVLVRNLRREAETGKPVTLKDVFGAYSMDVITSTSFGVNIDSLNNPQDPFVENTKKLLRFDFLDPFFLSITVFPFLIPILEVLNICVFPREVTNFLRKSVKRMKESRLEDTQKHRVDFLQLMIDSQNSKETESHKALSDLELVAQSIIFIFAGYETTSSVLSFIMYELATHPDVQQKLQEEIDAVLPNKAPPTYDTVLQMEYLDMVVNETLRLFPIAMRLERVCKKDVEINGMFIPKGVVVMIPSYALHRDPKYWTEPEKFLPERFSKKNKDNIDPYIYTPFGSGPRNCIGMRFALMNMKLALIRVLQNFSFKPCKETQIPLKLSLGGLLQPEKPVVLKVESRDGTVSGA

Chain of Cytochrome P450 2C19 (P33261 whole entry): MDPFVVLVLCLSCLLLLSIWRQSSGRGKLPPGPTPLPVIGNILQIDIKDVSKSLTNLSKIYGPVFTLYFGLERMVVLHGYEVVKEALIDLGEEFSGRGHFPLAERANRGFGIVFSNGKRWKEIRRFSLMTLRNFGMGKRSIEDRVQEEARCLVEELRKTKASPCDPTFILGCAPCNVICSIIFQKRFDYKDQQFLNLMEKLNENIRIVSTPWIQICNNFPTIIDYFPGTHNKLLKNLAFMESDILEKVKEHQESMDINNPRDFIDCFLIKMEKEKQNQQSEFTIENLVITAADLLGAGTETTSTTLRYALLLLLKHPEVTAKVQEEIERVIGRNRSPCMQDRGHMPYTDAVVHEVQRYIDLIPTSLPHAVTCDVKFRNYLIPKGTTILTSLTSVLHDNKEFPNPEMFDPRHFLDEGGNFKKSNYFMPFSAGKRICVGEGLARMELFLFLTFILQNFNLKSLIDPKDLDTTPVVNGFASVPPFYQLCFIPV
Chain of ATP-dependent molecular chaperone HSP82 (C4YTQ8 whole entry): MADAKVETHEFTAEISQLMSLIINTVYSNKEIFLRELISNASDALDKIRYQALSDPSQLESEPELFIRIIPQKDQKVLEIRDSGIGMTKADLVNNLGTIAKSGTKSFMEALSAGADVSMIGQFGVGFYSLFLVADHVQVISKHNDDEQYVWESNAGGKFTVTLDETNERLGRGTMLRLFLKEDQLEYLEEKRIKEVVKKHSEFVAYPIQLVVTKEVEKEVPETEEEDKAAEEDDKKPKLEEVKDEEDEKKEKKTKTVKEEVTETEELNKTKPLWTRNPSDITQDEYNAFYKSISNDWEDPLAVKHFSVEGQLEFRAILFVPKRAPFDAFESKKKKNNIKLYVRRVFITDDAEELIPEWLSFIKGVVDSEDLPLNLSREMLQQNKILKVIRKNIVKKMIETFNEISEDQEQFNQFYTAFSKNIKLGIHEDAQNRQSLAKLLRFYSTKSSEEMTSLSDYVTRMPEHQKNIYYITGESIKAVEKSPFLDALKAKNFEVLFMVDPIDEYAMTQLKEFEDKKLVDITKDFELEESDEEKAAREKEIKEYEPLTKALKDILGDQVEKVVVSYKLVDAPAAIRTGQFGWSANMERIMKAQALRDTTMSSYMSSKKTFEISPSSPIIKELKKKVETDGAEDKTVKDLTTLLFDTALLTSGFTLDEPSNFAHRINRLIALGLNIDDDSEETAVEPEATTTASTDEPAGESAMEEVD
Chain of Lysine-specific demethylase 4C (Q9H3R0 whole entry): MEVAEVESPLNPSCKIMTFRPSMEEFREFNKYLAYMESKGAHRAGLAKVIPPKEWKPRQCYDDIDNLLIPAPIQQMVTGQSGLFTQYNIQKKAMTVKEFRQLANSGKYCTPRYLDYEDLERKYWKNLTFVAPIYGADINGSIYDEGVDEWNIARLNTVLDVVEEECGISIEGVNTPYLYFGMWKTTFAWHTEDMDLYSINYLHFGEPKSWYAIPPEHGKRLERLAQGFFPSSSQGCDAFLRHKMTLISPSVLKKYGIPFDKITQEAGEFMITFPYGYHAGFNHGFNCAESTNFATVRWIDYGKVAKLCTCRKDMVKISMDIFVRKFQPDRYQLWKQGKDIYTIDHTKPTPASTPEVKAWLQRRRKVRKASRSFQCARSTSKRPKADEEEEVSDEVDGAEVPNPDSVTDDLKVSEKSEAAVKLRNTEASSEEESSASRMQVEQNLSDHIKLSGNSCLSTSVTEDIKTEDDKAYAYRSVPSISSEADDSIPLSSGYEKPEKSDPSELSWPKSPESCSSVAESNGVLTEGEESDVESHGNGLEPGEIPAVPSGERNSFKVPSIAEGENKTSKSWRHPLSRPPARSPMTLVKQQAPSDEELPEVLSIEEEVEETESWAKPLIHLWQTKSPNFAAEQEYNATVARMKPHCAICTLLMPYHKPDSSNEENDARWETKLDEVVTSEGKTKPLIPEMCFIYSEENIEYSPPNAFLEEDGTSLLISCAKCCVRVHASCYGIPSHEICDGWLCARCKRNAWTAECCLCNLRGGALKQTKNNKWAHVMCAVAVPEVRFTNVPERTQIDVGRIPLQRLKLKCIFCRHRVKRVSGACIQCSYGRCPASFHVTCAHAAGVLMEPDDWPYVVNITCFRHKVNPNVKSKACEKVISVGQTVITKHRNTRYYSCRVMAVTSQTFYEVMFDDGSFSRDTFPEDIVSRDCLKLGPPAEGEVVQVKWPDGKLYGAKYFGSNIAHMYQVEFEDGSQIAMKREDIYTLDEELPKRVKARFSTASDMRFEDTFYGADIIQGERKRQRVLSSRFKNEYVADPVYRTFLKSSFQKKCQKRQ

**Q.** Which AC50 [1] does the source give for `C=CCN1C(=O)NC(=O)/C(=C/c2ccc(OC)c(CSc3ccccn3)c2)C1=O` here?
**A.** Its AC50 is 40.1 µM (active).

**Q.** What about the EC50 [2] of the same compound?
**A.** Its EC50 is > 300 µM (not active).

**Q.** What about the EC50 [3] of the same compound?
**A.** Its EC50 is > 300 µM (not active).

**Q.** For `CC(C)COCc1ccc(O)c2ncccc12`, which AC50 (INS1) is on record?
**A.** Its AC50 is 2.35 µM (active).

**Q.** And the EC50 [4]?
**A.** Its EC50 is > 285 µM (inactive).

**Q.** And the EC50 [5]?
**A.** The EC50 was 10.9 µM (active).

**Q.** What about the CC50 [6] of the same compound?
**A.** Its CC50 is 10.2 µM (active).

**Q.** And the EC50 [7]?
**A.** The EC50 was 9.38 µM (active).

**Q.** And the EC50 [8]?
**A.** The EC50 was 1.67 µM (active).

**Q.** What about the EC50 (Streptococcus) of the same compound?
**A.** Its EC50 is 5.43 µM (active).

**Q.** What about the EC50 [9] of the same compound?
**A.** Its EC50 is > 150 µM (inactive).

**Q.** What about the EC50 [10] of the same compound?
**A.** Its EC50 is 0.294 µM (active).

**Q.** And the EC50 [11]?
**A.** The EC50 was > 180 µM (inactive).

**Q.** What about the EC50 [12] of the same compound?
**A.** The EC50 was 12.1 µM (active).

**Q.** What about the EC50 [13] of the same compound?
**A.** Its EC50 is 31.8 µM (active).

**Q.** Which AC50 (Cytochrome P450 2C19) does the source give for `O=C(c1ccco1)N1CCC2(CC1)CCN(c1ccccn1)CC2` here?
**A.** Its AC50 is 31.6 µM (inconclusive).

**Q.** And the AC50 (Cytochrome P450 3A4)?
**A.** The AC50 was “inconclusive”.
